Data set [1] deals with rabbit platelet (ADP-induced aggregation). Description: Platelet aggregation inhibitory effect, ADP-induced aggregation in rabbit platelet. The data set is classed as cell-based. The conditions noted are these: Oryctolagus cuniculus; for inhibition at 100 µM / inhibition at 10 µM: read-out: Inhibition effect on ADP-induced aggregation in rabbit platelet. The text has this:
(§1) The blood sample used for the test is a 1/9 (by volume) mixture of sodium citrate and whole blood collected from rabbit. Said sample is subjected to 10-minute centrifugal separation at 1,000 r.p.m. to obtain a platelet rich plasma (PRP). The thus obtained PRP is separated, and the remaining blood sample is further subjected to 15-minute centrifugal separation at 3,000 r.p.m. to obtain a platelet poor plasma (PPP).
(§2) The number of platelets in the PRP is counted by the Brecher-Clonkite Method, and the PRP is diluted with the PPP to prepare a PRP sample with platelet concentration of 300,000/mm^3 for the adenosine diphosphate (ADP)-induced aggregation test. There is also prepared a PRP sample with platelet concentration of 450,000/mm^3 for the collagen-induced aggregation test.
(§3) 0.6 Ml of said PRP sample is added into 0.01 ml of a solution of a test compound of a predetermined concentration and the mixture is placed in a 37° C. thermostat for one minute. Then 0.07 ml of an ADP or collagen solution is added to the mixture. Transmittance of this mixture is determined and the change of transmittance is recorded by using the aggregometer at stirrer speed of 1,100 r.p.m. […] ADP is adjusted to a concentration of 7.5×10^-5 M, and the collagen solution is prepared by triturating 100 mg of collagen with 5 ml of said buffer and the supernatant is used as collagen inducer. Adenosine and acetylsalicylic acid are used as controls for the ADP-induced aggregation test and the collagen-induced aggregation test, respectively. The platelet aggregation inhibitory effect is measured in terms of percent inhibition with respect to the aggregation rate of the controls. The aggregation rate is calculated from the following formula: [formula] wherein a: transmittance of PRP
(§4) b: transmittance of PRP containing a test compound and an aggregation inducer
(§5) The compounds tested are as follows.

For data set [2], the system named is rabbit platelet (collagen-induced aggregation). Description: Platelet aggregation inhibitory effect, collagen-induced aggregation in rabbit platelet. The data set is classed as cell-based. The conditions noted are these: Oryctolagus cuniculus, read-out: Inhibition effect on collagen-induced aggregation in rabbit platelet.
Excerpt: as §1, §2, §3, §4, §5

A short description of another data set: Acute toxicity test. The conditions noted are these: mouse, in vivo; male mice, oral administration. As for the experimental part:
The test compounds were administered orally to the mice and LD50 (mg/kg) of the compounds was determined.

The target in data set [3] is T1, cyclic AMP phosphodiesterase (Oryctolagus cuniculus, UniProt G1ST54).
T1 construct: the supernatant was collected to use it as a crude enzyme solution; from tissue; host or cells: rabbit platelets (from platelet-rich plasma)
T1 sequence (G1ST54 1-1128): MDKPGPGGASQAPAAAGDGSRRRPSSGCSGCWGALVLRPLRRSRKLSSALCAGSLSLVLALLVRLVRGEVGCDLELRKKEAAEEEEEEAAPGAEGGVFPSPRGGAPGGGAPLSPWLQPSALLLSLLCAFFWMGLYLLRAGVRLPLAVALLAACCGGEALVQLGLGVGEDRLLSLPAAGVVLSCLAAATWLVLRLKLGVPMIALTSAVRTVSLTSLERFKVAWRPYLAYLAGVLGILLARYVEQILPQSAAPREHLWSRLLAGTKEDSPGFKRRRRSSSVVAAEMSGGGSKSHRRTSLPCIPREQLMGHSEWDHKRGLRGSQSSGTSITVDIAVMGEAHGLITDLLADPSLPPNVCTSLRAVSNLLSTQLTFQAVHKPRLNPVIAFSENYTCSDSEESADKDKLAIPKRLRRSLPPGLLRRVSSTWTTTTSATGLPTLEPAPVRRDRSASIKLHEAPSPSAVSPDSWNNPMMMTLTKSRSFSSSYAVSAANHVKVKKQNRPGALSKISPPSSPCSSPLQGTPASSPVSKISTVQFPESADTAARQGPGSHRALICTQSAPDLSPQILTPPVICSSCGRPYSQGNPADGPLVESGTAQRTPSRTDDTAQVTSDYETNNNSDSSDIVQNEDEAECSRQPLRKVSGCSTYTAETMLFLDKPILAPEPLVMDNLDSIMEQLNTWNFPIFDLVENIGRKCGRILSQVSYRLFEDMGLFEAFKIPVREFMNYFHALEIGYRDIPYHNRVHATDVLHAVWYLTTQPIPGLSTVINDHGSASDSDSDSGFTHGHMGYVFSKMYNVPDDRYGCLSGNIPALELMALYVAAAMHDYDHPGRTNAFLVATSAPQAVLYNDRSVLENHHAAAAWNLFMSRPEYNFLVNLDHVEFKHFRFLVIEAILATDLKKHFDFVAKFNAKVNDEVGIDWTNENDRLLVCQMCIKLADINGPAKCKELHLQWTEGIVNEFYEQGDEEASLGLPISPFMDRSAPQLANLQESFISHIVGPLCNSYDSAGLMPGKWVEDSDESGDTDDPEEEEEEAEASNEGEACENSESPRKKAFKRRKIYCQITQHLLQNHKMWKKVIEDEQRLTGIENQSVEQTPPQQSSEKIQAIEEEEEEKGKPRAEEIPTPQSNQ
Description: Obstructive action against cyclic AMP phosphodiesterase. The conditions noted are these: 0.4 μmol cyclic AMP, read-out: Phosphodiesterase obstruction rate. The data set is classed as biochemical, rabbit. How it is done:
(Test of obstructive action against cyclic AMP phosphodiesterase)
The obstructive action against cyclic AMP phosphodiesterase was measured according to the activity measuring method described in "Biochimica et Biophysica Acta", Vol. 429, pp. 485-497 (1976) and "Biochemical Medicine", Vol. 10, pp. 301-311 (1974).
That is, for determining the obstructive activity against cyclic AMP phosphodiesterase, 10 ml of a solution obtained by adding 1 mmol of MgCl2 into 50 mmol of tris-hydrochloric acid buffer with pH 7.4 was added to the platelets obtained by further centrifuging the above-said rabbit PRP at 3,000 r.p.m. for 10 minutes, and the suspended platelets were ground by a Teflon potter type homogenizer. This was followed by two times of freezing and thawing treatment and 300-second fracturing with 200 watt supersonic waves. After additional 60-minute centrifugation with 100,000 g, the supernatant was collected to use it as a crude enzyme solution.
10 Milliliters of this crude buffer solution was added to a 1.5×20 cm DEAE-cellulose column which has previously been buffered with 50 mmol of tris-acetate buffer (pH 6.0), followed by washing and elution with 30 ml of 50 mmol tris-acetate buffer, and this buffer solution was subjected to linear gradient elution with 0 to 1 moles of sodium acetate-tris-acetate buffer. The flow rate was 0.5 ml/min, and 5 ml of each fraction was batched out. […] This fraction was used as cyclic AMP phosphodiesterase.
0.1 Milliliter of an aqueous solution of each test compound of a specified concentration was mixed with 40 mmol of tris-hydrochloric acid buffer (pH 8.0, containing 50 μg of cow serum albumin and 4 mmol of MgCl2) containing predetermined 0.4 μmol of cyclic AMP (tritium cyclic AMP), and 0.2 ml of this mixed solution was used as a substrate solution.
0.2 Milliliter of the above-prepared cyclic AMP phosphodiesterase of a predetermined concentration was added to said substrate solution and the mixture was reacted at 30° C. for 20 minutes, producing tritium 5'-AMP from the tritium cyclic AMP.
The reaction system was then immersed in boiling water for 2 minutes to stop the reaction, and then this reaction solution was cooled in ice water and, for converting the produced tritium 5'-AMP into tritium adenosine, the solution was added with 0.05 ml (1 mg/ml) of snake poison as 5'-nucleotidase and reacted at 30° C. for 10 minutes. The whole amount of this reaction solutions was then added to a cation exchange resin (AG 500 W×4, 200-400 meshes, manufactured by Bio-Rad Co., column size: 0.5×1.5 cm), and the produced tritium anodesine alone was allowed to combine, washed with 6 ml of distilled water and eluted with 1.5 ml of 3 N-ammonia water. The whole quantity of the elutant was added with 10 ml of a triton-toluene type scintillator and the produced tritium adenosine was measured by a liquid scintillation counter to determine the phosphodiesterase activity.
In this way, the phosphodiesterase activation value (Vs) of the test compounds of the respective concentrations was determined, and the phosphodiesterase obstruction rate (%) was determined from said activation value (Vs) and control value (Vc) (obtained from water not containing any test compound) from the following formula: [formula]

[4] abbreviates: concentration of the test compound solution 10^-4 mole.
[5] abbreviates: concentration of the test compound solution 10^-5 mole.
Setting [6] is: concentration of the test compound solution 10^-6 mole.

For 13 compounds, inhibition and LD50 results are on record in patent US4277479A, “Tetrazolylalkoxycarbostyril derivatives and pharmaceutical compositions containing them” (Otsuka Pharmaceutical Co., Ltd., priority 1978, dated 1981).

Read-outs that look alike come from different tables or passages of the source.

Regarding `O=C1CCc2cc(OCCN3CCOCC3)ccc2N1` [Compound 24, 6-(2-Morpholinoethoxy)-3,4-dihydrocarbostyril, reference compound], the inhibition at 100 µM in data set [1] (setting [4]) was 17%; in data set [2] (setting [4]), 31%.
On the same counts, the results for `O=C1CCc2c(cccc2OCCCN2CCCCC2)N1` [Compound 23, 5-(3-Piperidinopropoxy)-3,4-dihydrocarbostyril, reference compound] are 15% and 27%.
`CC(=O)Oc1ccccc1C(=O)O` [Compound 17, Aspirin, reference compound]: in data set [1], the inhibition at 10 µM was found to be 0% and the inhibition at 100 µM is 7%. Besides, in data set [2], the inhibition at 1 µM is 7%, the inhibition at 10 µM worked out at 9% and the inhibition at 100 µM worked out at 65%.
The LD50 is the dose at which mortality reaches 50%. A lower LD50 goes with a more toxic substance. `Cn1c(=O)ccc2cc(OCCCc3nnnn3C3CCCCC3)ccc21` [Compound 8, 1-Methyl-6-[3-(1-cyclohexyltetrazol-5-yl)propoxy]carbostyril] registered an LD50 in “Acute toxicity test” greater than 1000 mg/kg. Besides, the inhibition at 100 µM was determined as 87.8% in data set [1] (setting [4]) and 91.5% in data set [2] (setting [4]). Also, the inhibition at 10 µM in data set [1] (setting [5]) came to 42.4%; in data set [2] (setting [5]), 43.4%. Also, the inhibition at 1 µM stood at 21.3% in data set [1] (setting [6]) and 18.6% in data set [2] (setting [6]).
Consider `CC(COc1cccc2c1NC(=O)CC2)N1CCCCC1` (centres unmarked) [Compound 26, 8-(2-Piperidinopropoxy)-3,4-dihydrocarbostyril, reference compound], for which the inhibition at 100 µM in data set [1] (setting [4]) turned out to be 14%; in data set [2] (setting [4]) it was 12%.
With `C=CCn1c(=O)ccc2cc(OCCCc3nnnn3C3CCCCC3)ccc21` [Compound 13, 1-Allyl-6-[3-(1-cyclohexyltetrazol-5-yl)propoxy]carbostyril], in the data set “Acute toxicity test”, the LD50 is greater than 1000 mg/kg. For the same compound, the inhibition at 100 µM in data set [1] (setting [4]) was determined as 81.6%; in data set [2] (setting [4]) it was 89.7%. In addition, the results for the inhibition at 10 µM in data set [1] (setting [5]) and in data set [2] (setting [5]) were 41.7% and 44.8%, respectively. The inhibition at 1 µM in data set [2] (setting [6]) is 23.2%.
Consider `CSc1nnnn1CCCOc1ccc2c(c1)CCC(=O)N2` [Compound 18, 6-[3-(5-Methylthiotetrazol-1-yl)propoxy]-3,4-dihydrocarbostyril, reference compound], for which the values for the inhibition at 100 µM in data set [1] (setting [4]) and in data set [2] (setting [4]) were 0% and 67.4%, respectively. Also, the inhibition at 10 µM in data set [2] (setting [5]) came out at 13.3%.
On the same counts, the results for `CSc1nnn(CCCOc2ccc3c(c2)CCC(=O)N3)n1` [Compound 19, 6-[3-(5-Methylthiotetrazol-2-yl)propoxy]-3,4-dihydrocarbostyril, reference compound] are 2.3%, 73.4% and 1.3%.
As for `O=C1CCc2ccc(OCCCN3CCCCC3)cc2N1` [Compound 25, 7-(3-Piperidinopropoxy)-3,4-dihydrocarbostyril, reference compound], the inhibition at 100 µM was found to be 12% in data set [1] (setting [4]) and 18% in data set [2] (setting [4]).
For the compound `CC(C)Cn1c(=O)n(C)c(=O)c2[nH]cnc21` [1-Methyl-3-isobutylxanthine, 1-methyl-3-isobutylxanthine, reference compound], the inhibition at 1 µM in data set [3] (concentration of test compound solution 10^-6 mole) was determined as 63.4%. For the same compound, the inhibition in data set [3] (concentration of test compound solution 10^-7 mole) was 4.2%.
For `O=C1CCc2c(cccc2OCCN2CCCCC2)N1` [Compound 21, 5-(2-Piperidinoethoxy)-3,4-dihydrocarbostyril, reference compound], the inhibition at 100 µM in data set [1] (setting [4]) was 18%; in data set [2] (setting [4]), 25%.
On the same counts, the results for `O=C1CCc2c(cccc2OCCN2CCOCC2)N1` [Compound 22, 5-(2-Morpholinoethoxy)-3,4-dihydrocarbostyril, reference compound] are 13% and 23%.
With `O=C1CCc2cc(OCCCn3cnnn3)ccc2N1` [Compound 20, 6-[3-(Tetrazol-1-yl)propoxy]-3,4-dihydrocarbostyril, reference compound], the inhibition at 100 µM was found to be 4.3% in data set [1] (setting [4]) and 77.4% in data set [2] (setting [4]). Besides, in data set [2] (setting [5]), the inhibition at 10 µM was 0%.
